From patent publication US20260262643A1, “HERBICIDAL BENZOXAZINES” (FMC CORPORATION, priority 2022, published 2026)

What was measured:
barnyardgrass [1] = assay: Test C preemergence; type: in vivo, Echinochloa crusgalli
Method in brief: (§1)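 Seeds in loam–sand blend received preemergence directed soil spray of test chemicals in non-phytotoxic solvent with surfactant; postemergence treatment was applied at one- to two-leaf stage (2–10 cm). After 10 days in greenhouse, injury rated visually versus untreated controls, 0 (no effect) to 100 (complete control).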

blackgrass [2] = assay: Test C preemergence; type: in vivo, Alopecurus myosuroides
Method in brief: as §1

corn [3] = assay: Test C preemergence; type: in vivo, Zea mays
Method in brief: as §1

green foxtail [4] = assay: Test C preemergence; type: in vivo, Setaria viridis
Method in brief: as §1

kochia [5] = assay: Test C preemergence; type: in vivo, Bassia scoparia
Method in brief: as §1

oat, wild [6] = assay: Test C preemergence; type: in vivo, Avena fatua
Method in brief: as §1

pigweed, palmer [7] = assay: Test C preemergence; type: in vivo, Amaranthus palmeri
Method in brief: as §1

ragweed [8] = assay: Test C preemergence; type: in vivo, Ambrosia artemisiifolia
Method in brief: as §1

ryegrass, Italian [9] = assay: Test C preemergence; type: in vivo, Lolium multiflorum
Method in brief: as §1

soybean [10] = assay: Test C preemergence; type: in vivo, Glycine max
Method in brief: as §1

wheat [11] = assay: Test C preemergence; type: in vivo, Triticum aestivum
Method in brief: as §1

barnyardgrass [12] = assay: Test C postemergence; type: in vivo, Echinochloa crusgalli; details: 10 days, 0 to 100 scale (0 no effect, 100 complete control)
Method in brief: as §1

blackgrass [13] = assay: Test C postemergence; type: in vivo, Alopecurus myosuroides; details: 10 days, 0 to 100 scale (0 no effect, 100 complete control)
Method in brief: as §1

corn [14] = assay: Test C postemergence; type: in vivo, Zea mays; details: 10 days, 0 to 100 scale (0 no effect, 100 complete control)
Method in brief: as §1

green foxtail [15] = assay: Test C postemergence; type: in vivo, Setaria viridis; details: 10 days, 0 to 100 scale (0 no effect, 100 complete control)
Method in brief: as §1

kochia [16] = assay: Test C postemergence; type: in vivo, Bassia scoparia; details: 10 days, 0 to 100 scale (0 no effect, 100 complete control)
Method in brief: as §1

oat, wild [17] = assay: Test C postemergence; type: in vivo, Avena fatua; details: 10 days, 0 to 100 scale (0 no effect, 100 complete control)
Method in brief: as §1

pigweed, palmer [18] = assay: Test C postemergence; type: in vivo, Amaranthus palmeri; details: 10 days, 0 to 100 scale (0 no effect, 100 complete control)
Method in brief: as §1

ragweed [19] = assay: Test C postemergence; type: in vivo, Ambrosia artemisiifolia; details: Postemergence, 125 g ai/ha; 0 to 100 scale (0 no effect, 100 complete control), 10 days
Method in brief: as §1

ryegrass, Italian [20] = assay: Test C postemergence; type: in vivo, Lolium multiflorum; details: Postemergence, 125 g ai/ha; 0 to 100 scale (0 no effect, 100 complete control), 10 days
Method in brief: as §1

soybean [21] = assay: Test C postemergence; type: in vivo, Glycine max; details: Postemergence, 125 g ai/ha; 0 to 100 scale (0 no effect, 100 complete control), 10 days
Method in brief: as §1

wheat [22] = assay: Test C postemergence; type: in vivo, Triticum aestivum; details: Postemergence, 125 g ai/ha; 0 to 100 scale (0 no effect, 100 complete control), 10 days
Method in brief: as §1

galium = assay: Test C postemergence; type: in vivo, Galium aparine; details: 10 days, 0 to 100 scale (0 no effect, 100 complete control)
Method in brief: as §1

horseweed = assay: Test C postemergence; type: in vivo, Erigeron canadensis; details: 500 g ai/ha, postemergence, 10 days, 0 to 100 scale (0 no effect, 100 complete control)
Method in brief: as §1

barnyardgrass [23] = assay: Test D flooded paddy test; type: in vivo, Echinochloa crus-galli; details: 250 g ai/ha, applied to paddy water, visual rating after 13 to 14 days, scale 0 to 100 (0 no effect, 100 complete control)
Method in brief: (§2)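 2-leaf plants; flood 3 cm above soil; compound dosed into paddy water; greenhouse 13–14 d; visual rating vs controls, 0–100 (100 = complete control); dash = not tested.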

ducksalad = assay: Test D flooded paddy test; type: in vivo, Heteranthera limosa; details: 250 g ai/ha, applied to paddy water, visual rating after 13 to 14 days, scale 0 to 100 (0 no effect, 100 complete control)
Method in brief: as §2

rice = assay: Test D flooded paddy test; type: in vivo, Oryza sativa; details: 250 g ai/ha, applied to paddy water, visual rating after 13 to 14 days, scale 0 to 100 (0 no effect, 100 complete control)
Method in brief: as §2

sedge, umbrella = assay: Test D flooded paddy test; type: in vivo, Cyperus difformis; details: 250 g ai/ha, applied to paddy water, visual rating after 13 to 14 days, scale 0 to 100 (0 no effect, 100 complete control)
Method in brief: as §2

[24] = 500 g ai/ha, preemergence, 0 to 100 scale (0 no effect, 100 complete control)
[25] = Preemergence, 125 g ai/ha, 0 to 100 scale, 0 no effect, 100 complete control

In the case of `Cc1ccc(-n2cnc(CS(C)(=N)=O)n2)cc1C(=O)N1C[C@H](C)Oc2c(Cl)cccc21` (some centres unmarked) [Compound 403], the “Barnyardgrass plant response rating” value (barnyardgrass [1]; [24]) is reported as 70, the “Plant response rating, Barnyardgrass” value (barnyardgrass [1]; [25]) is reported as 40 and the “Blackgrass plant response rating” value (blackgrass [2]; [24]) is reported as 80. For the same compound, the “Plant response rating, Blackgrass” value (blackgrass [2]; [25]) was 60, the “Corn plant response rating” value (corn [3]; [24]) was 50 and the “Plant response rating, Corn” value (corn [3]; [25]) was 10. For the same compound, the “Foxtail, Green plant response rating” value (green foxtail [4]; [24]) was 100, the “Plant response rating, Foxtail, Green” value (green foxtail [4]; [25]) was 90 and the “Kochia plant response rating” value (kochia [5]; [24]) was 100. For the same compound, the “Plant response rating, Kochia” value (kochia [5]; [25]) was 60, the “Oat, Wild plant response rating” value (oat, wild [6]; [24]) was 40 and the “Plant response rating, Oat, Wild” value (oat, wild [6]; [25]) was 0. The “Pigweed, Palmer plant response rating” value (pigweed, palmer [7]; [24]) was 100, the “Plant response rating, Pigweed, Palmer” value (pigweed, palmer [7]; [25]) was 30 and the “Ragweed plant response rating” value (ragweed [8]; [24]) was 80. The “Plant response rating, Ragweed” value (ragweed [8]; [25]) was 30, the “Ryegrass, Italian plant response rating” value (ryegrass, Italian [9]; [24]) was 90 and the “Plant response rating, Ryegrass, Italian” value (ryegrass, Italian [9]; [25]) was 40. For the same compound, the “Soybean plant response rating” value (soybean [10]; [24]) was 90, the “Plant response rating, Soybean” value (soybean [10]; [25]) was 80 and the “Wheat plant response rating” value (wheat [11]; [24]) was 50. The “Plant response rating, Wheat” value (wheat [11]; [25]) was 0, the “Plant response rating, Barnyardgrass” value (barnyardgrass [12]; 500 g ai/ha, postemergence) was 70 and the “Plant response rating, Barnyardgrass” value (barnyardgrass [12]; Postemergence, 125 g ai/ha) was 30. For the same compound, the “Plant response rating, Blackgrass” value (blackgrass [13]; 500 g ai/ha, postemergence) was 80, the “Plant response rating, Blackgrass” value (blackgrass [13]; Postemergence, 125 g ai/ha) was 20 and the “Plant response rating, Corn” value (corn [14]; 500 g ai/ha, postemergence) was 80. The “Plant response rating, Corn” value (corn [14]; Postemergence, 125 g ai/ha) was 20, the “Plant response rating, Foxtail, Green” value (green foxtail [15]; 500 g ai/ha, postemergence) was 90 and the “Plant response rating, Foxtail, Green” value (green foxtail [15]; Postemergence, 125 g ai/ha) was 50. The “Plant response rating, Kochia” value (kochia [16]; 500 g ai/ha, postemergence) was 80, the “Plant response rating, Kochia” value (kochia [16]; Postemergence, 125 g ai/ha) was 80 and the “Plant response rating, Oat, Wild” value (oat, wild [17]; 500 g ai/ha, postemergence) was 90. For the same compound, the “Plant response rating, Oat, Wild” value (oat, wild [17]; Postemergence, 125 g ai/ha) was 30, the “Plant response rating, Pigweed, Palmer” value (pigweed, palmer [18]; 500 g ai/ha, postemergence) was 100 and the “Plant response rating, Pigweed, Palmer” value (pigweed, palmer [18]; Postemergence, 125 g ai/ha) was 90. For the same compound, the “Plant response rating, Ragweed” value (ragweed [19]) was 70, the “Plant response rating, Ryegrass, Italian” value (ryegrass, Italian [20]) was 50 and the “Plant response rating, Soybean” value (soybean [21]) was 100. The “Plant response rating, Wheat” value (wheat [22]) was 20, the “Plant response rating, Galium” value (galium; 500 g ai/ha, postemergence) was 100 and the “Plant response rating, Galium” value (galium; Postemergence, 125 g ai/ha) was 100. The “Plant response rating, Horseweed” value (horseweed) was 60, the “Plant response rating, Barnyardgrass (Flood)” value (barnyardgrass [23]) was 0 and the “Plant response rating, Ducksalad (Flood)” value (ducksalad) was 50. The “Plant response rating, Rice (Flood)” value (rice) was 0 and the “Plant response rating, Sedge, Umbrella (Flood)” value (sedge, umbrella) was 45.
